We go through 33 molecules from ChEMBL document CHEMBL3301361, “Experimental in vitro DMPK and physicochemical data on a set of publicly disclosed compounds”.

The data set in a line: in vitro. To be noted: human, plasma, PPB.

Molecules are shown by their SMILES.

For the molecule `COc1cccc(C(=O)N2C(C(=O)O)CSC2c2ccccc2Cl)c1` (stereo not drawn), the fraction unbound at 5 h was 0.0139.
As to `CC(C)(C)COc1ccc(-n2cc(C(=O)O)cn2)cc1C#N`, the fraction unbound at 5 h was 0.0224.
As for `O=C(CN1CCCC1)N1c2ccccc2Sc2ccc(C(F)(F)F)cc21`, the figure is 0.0229; as for `COc1ccc(Cl)cc1NC(=O)CCS(=O)(=O)c1ccc(C)cc1`, 0.0219; as for `CN[C@@H](C)C(=O)N[C@H](C(=O)N[C@H]1CCCN(CCc2ccc(Br)cc2)C1)C(C)(C)C`, 0.0229.
As for `CNc1c(Br)cnc2[nH]c(-c3ccc(OCCN4CCOCC4)cc3)nc12`, the figure is 0.0149; as for `COc1ccc(-c2nc3c(NCCCNC(=O)c4cccnc4)c(Br)cnc3[nH]2)cc1`, 0.013; as for `CC(C)COc1cccc(/C=C2\SC(=O)NC2=O)c1N1CCC[C@@H](N)C1`, 0.0119.
With `O=C(O)/C=C/c1cccc(-c2cnc3[nH]ccc3c2)c1` the figure was 0.0219; with `CC(=O)Nc1ccc2c(c1)c(-c1cc(NC3CC3)n3ncc(C#N)c3n1)cn2CCO`, 0.0179; with `COC(=O)CCn1cc(-c2cc(NC3CC3)n3ncc(C#N)c3n2)c2cc(NC(C)=O)ccc21`, 0.016.
Take `COc1ncc(-c2cccc3c2C[C@H](NC(=O)c2ccc(OCCC(F)(F)F)nc2)CO3)cn1`: the fraction unbound at 5 h was 0.0133.
In turn, `O=C(O)COc1ccccc1N1CCC(CN2CCC(Oc3ccc(Cl)c(Cl)c3)CC2)CC1` showed a fraction unbound at 5 h of 0.0114.
With `O=C(NC[C@@H](O)CN1CCC(Oc2ccc(Cl)c(Cl)c2)CC1)c1c[nH]c(=O)c2cc(F)ccc12` the figure was 0.0108; with `COc1cc(OC)c(S(=O)(=O)N2c3ccccc3Oc3ccccc32)cc1NC(=O)/C=C/C(=O)O`, 0.024.
The molecule `Cc1cn([C@H]2CCCN(S(=O)(=O)c3ccc(C#N)c(Oc4cccc(Cl)c4)c3)C2)c(=O)[nH]c1=O` had a fraction unbound at 5 h of 0.0229.
With `COc1ccc(S(=O)(=O)N2CCC[C@H](n3cc(C)c(=O)[nH]c3=O)C2)cc1Oc1cccc(Cl)c1` the figure was 0.0251; with `COCCNC(=O)c1ccc(Nc2ncc3cc(-c4ccncc4C)ccc3n2)cc1`, 0.0139.
With `CN(C)CCNC(=O)c1ccc(Nc2ncc3cc(-c4ccncc4)ccc3n2)cc1` the figure was 0.0111; with `COc1cccc(OC)c1OCCNCC1COc2ccccc2O1` (stereo not drawn), 0.024; with `O=C(O)COn1c(-c2ccccc2)nc2ccc([N+](=O)[O-])cc21`, 0.0139.
`Cc1ncc(NC(=O)c2cc(NC(=O)c3cccc(C(F)(F)F)c3)ccc2C)s1`: the fraction unbound at 5 h was 0.0119.
Consider `CCOc1cc2ncc(C(N)=O)c(Nc3cccc(Cl)c3Cl)c2cc1N1CCN(CC)CC1`, for which the fraction unbound at 5 h is 0.0183.
As for `CCOc1cc2ncc(C(N)=O)c(Nc3cccc(Cl)c3Cl)c2cc1N1CCN(C(C)C)CC1`, the figure is 0.0146; as for `CCOc1cc2ncc(C(N)=O)c(Nc3cccc(Cl)c3Cl)c2cc1N1CCCN(C)CC1`, 0.0163; as for `CCOc1cc2ncc(C(N)=O)c(Nc3ccc(F)cc3F)c2cc1N1CCCN(C2CC2)CC1`, 0.0219.
With `CC(C)Oc1cc2ncc(C(N)=O)c(Nc3ccc(F)cc3F)c2cc1N1CCN(C)CC1` the figure was 0.0171; with `COc1cc2ncc(C(N)=O)c(Nc3cccc(Cl)c3Cl)c2cc1NCCN1CCCCC1`, 0.0209.
With `CCOc1cc2ncc(C(N)=O)c(Nc3cccc(Cl)c3Cl)c2cc1N1CCN(CCOC)CC1` the figure was 0.0171.
Molecule `O=C(Nc1ccc(CCO)cc1)c1cc2cc(Cl)ccc2[nH]1` had a fraction unbound at 5 h of 0.0139.
As for `CC(C)Oc1cc2ncc(C(N)=O)c(Nc3cccc(Cl)c3Cl)c2cc1N1CCN(C)CC1`, the figure is 0.0139.
In the case of `O=c1[nH]cnc2scc(-c3cccs3)c12`, the free fraction (fraction unbound) at 5 h is 0.0111.
With `O=C(Nc1cccc2cccnc12)c1ccc(N2C(=O)[C@@H]3[C@H](C2=O)[C@@H]2C=C[C@H]3C2)cc1` the figure was 0.0111.

In general, fraction unbound refers to free concentration divided by total concentration. A low value points to little free substance.
